According to patent publication US9724331B2, “Use of maleimide derivatives for preventing and treating leukemia” (CENTOGENE AG, priority 2012, dated 2017):

Columns and labels:
Format in all cases: cell-based, human
SEM cells [1] = assay: May Grunwald-Giemsa staining, morphology by light microscopy; conditions: 1 μM PDA-66, 48 h, vs. DMSO treated control cells
Procedure: (§1) Cytospins of SEM and Jurkat cells were stained with May Grunwald-Giemsa Staining after 48 h of incubation with 1 μM PDA-66 and DMSO, respectively
(§2) After treatment with 1 μM PDA-66 3×10^4 cells were brought onto object slides with Cytospin 3 centrifuge (Shandon, Frankfurt/Main, Germany). Subsequently cells were stained using May-Grunwald-Giemsa staining. Briefly, slides were incubated in May-Grunwald solution (Merck, Darmstadt, Germany) for 6 min, then washed with tap water, incubated in Giemsa solution (Merck, Darmstadt, Germany) for 20 min and washed in tap water again. After letting the slides dry the cells were analyzed by Nikon Eclipse E 600 light microscope and pictures were taken with NIS Elements software (Nikon, Düsseldorf, Germany).

Jurkat cells [2] = assay: as above; conditions: 1 μM PDA-66, 48 h, vs. DMSO treated control cells
Procedure: as §1, §2

SEM cells [3] = assay: Proliferation, cell counts by trypan blue staining
Procedure: (§3) The human B-ALL cell lines SEM, RS4;11 and the human T-ALL cell lines Jurkat and Molt-4 were purchased from DSMZ (Germany) and cultured according to manufacturer's protocol. The corresponding medium was supplemented with 10% heat-inactivated fetal bovine serum (PAA, Pasching, Austria) and 1% penicillin and streptomycin (Biochrom AG, Berlin, Germany). The Molt-4 cells were cultured with medium supplemented with 20% heat-inactivated fetal bovine serum. All cells were maintained at 37° C. in 5% CO2. Cells (5×10^5/well) were seeded in 24 well plates (Nunc, Langenselbold, Germany) and incubated for up to 72 h with PDA-66. Treated cells were harvested after 4, 24, 48 and 72 h and used for further analyses.
(§4) Cell counts were determined using the trypan blue staining. Metabolic activity was analyzed by using tetrazolium compound WST-1 (Roche, Mannheim, Germany). In brief, triplicates of cells (5×10^4/well) were seeded in 96 well plates, treated with PDA-66 and incubated with 15 μl WST-1 for up to 4 h. The mitochondrial dehydrogenases reduce WST-1 to soluble formazan and cause a change of color, which correlates with the amount of metabolically active cells. Absorbance at 450 nm and a reference wavelength at 620 nm were determined by an ELISA Reader (Anthos, Krefeld, Germany). The absorbance of culture medium with supplemented WST-1 in the absence of cells was used as background control.
(§5) The influence of PDA-66 on proliferation in ALL cell lines SEM, RS4;11, Jurkat and Molt-4 was analyzed by incubation with different concentrations of the drug (0.001 μM to 10 μM). Metabolic activity was determined using WST-1 assay. […] Results are summarized in FIG. 2, whereby the individual nine bars for each set of experiments represent, from left to right, DMSO, 0.001 μM, 0.01 μM, 0.1 μM, 0.25 μM, 0.5 μM, 1.0 μM, 5 μM and 10 μM. After 48 h of incubation an inhibition of proliferation could be observed, but was more distinct after 72 h.

Jurkat cells [4] = assay: Proliferation, cell counts by trypan blue staining
Procedure: as §3, §4, §5

Molt-4 cells [5] = assay: Proliferation, cell counts by trypan blue staining
Procedure: as §3, §4, §5

RS4;11 cells [6] = assay: Proliferation, cell counts by trypan blue staining
Procedure: as §3, §4, §5

SEM cells [7] = assay: Apoptosis and necrosis, Annexin V FITC / PI flow cytometry
Procedure: (§6) Apoptosis and necrosis were analyzed by staining the cells with Annexin V FITC (BD Biosciences, Heidelberg, Germany) and propidium iodide (PI) (Sigma Aldrich, St. Louis, USA). Results were assessed by flow cytometry.
(§7) (A) Cells were treated with PDA-66 for up to 72 h and stained with Annexin V FITC and Propidium iodide (PI). Rates of early apoptotic (FITC^+, PI^−) and late apoptotic and necrotic (FITC^+, PI^+) cells were measured by flow cytometry. Significant induction of apoptosis could be observed in all cell lines after 48 h of incubation as well as tendential induction of necrosis at both points of time. […] (B) Induction of apoptosis was confirmed by Western blot. Cells were treated with different concentrations of PDA-66 and total cell lysates (25 μg) were analyzed by Western blot to detect cleavage of Caspase 3, 7 and PARP. GAPDH was used as loading control.
(§8) More specifically, 5×10^5 cells were harvested and washed twice (180 g, 10 min, 4° C.) with PBS. After resuspending the cells in 100 μl of binding buffer (1×) 4 μl of Annexin V FITC were added and incubated for 15 min at room temperature. Following addition of 400 μl binding buffer for a final volume of 500 μl the cells were stained with PI (0.6 μg/ml) immediately before measurement. As controls unstained and single stained cells were included in each experiment. Measurements were performed using FACSCalibur (Becton and Dickinson, Heidelberg, Germany) and data analyses were carried out with CellQuest software (Becton and Dickinson, Heidelberg, Germany).

Jurkat cells [8] = assay: as above
Procedure: as §6, §7, §8

Molt-4 cells [9] = assay: as above
Procedure: as §6, §7, §8

RS4;11 cells [10] = assay: as above
Procedure: as §6, §7, §8

[11] = 0.5 μM PDA-66, 72 h, vs. DMSO control
[12] = 0.5 μM or more, seeded cells 5×10^5

In the case of `CC(=O)c1ccc(C2=C(c3c(C)[nH]c4ccccc34)C(=O)N(C)C2=O)cc1` [PDA-66, 3-(4-Acetylphenyl)-1-methyl-4-(2-methyl-1H-indol-3-yl)-1H-pyrrole-2,5-dione], the morphology (SEM cells [1]) is reported as “condensation of chromatin in the nucleus, karyorrhexis and an increasing amount of vacuoles and cell debris”, the morphology (Jurkat cells [2]) is reported as “condensation of chromatin in the nucleus, karyorrhexis and an increasing amount of vacuoles and cell debris” and the inhibition of proliferation (SEM cells [3]; [11]) is reported as “significant inhibition”. For the same compound, the cell numbers (SEM cells [3]; [12]) was “decrease in cell numbers i.e. below the amount of seeded cells”, the inhibition of proliferation (Jurkat cells [4]; [11]) was “significant inhibition” and the cell numbers (Jurkat cells [4]; [12]) was “decrease in cell numbers i.e. below the amount of seeded cells”. For the same compound, the inhibition of proliferation (Molt-4 cells [5]; [11]) was “significant inhibition”, the cell numbers (Molt-4 cells [5]; [12]) was “decrease in cell numbers i.e. below the amount of seeded cells” and the inhibition of proliferation (RS4;11 cells [6]; [11]) was “significant inhibition”. The cell numbers (RS4;11 cells [6]; [12]) was “decrease in cell numbers i.e. below the amount of seeded cells”, the necrosis (SEM cells [7]; 1 μM PDA-66, 48 h) was “tendential increase” and the “apoptosis (early apoptotic cells, FITC+, PI−)” value (shortened to “apoptosis”) (SEM cells [7]; 1 μM PDA-66, 48 h, mean±SD) was 10.5±1.3%. The “apoptosis” value (SEM cells [7]; 1 μM PDA-66, 72 h, mean±SD) was 5.6±1.6%, the “necrosis rate (late apoptotic and necrotic cells, FITC+, PI+)” value (from here on “necrosis rate”) (SEM cells [7]; 1 μM PDA-66, 72 h, mean±SD) was 27.8±5.81% and the necrosis (Jurkat cells [8]; 1 μM PDA-66, 48 h) was “tendential increase”. The “apoptosis” value (Jurkat cells [8]; 1 μM PDA-66, 48 h, mean±SD) was 8.3±1.9%, the “apoptosis” value (Jurkat cells [8]; 1 μM PDA-66, 72 h, mean±SD) was 6.1±0.7% and the “necrosis rate” value (Jurkat cells [8]; 1 μM PDA-66, 72 h, mean±SD) was 28.0±13.4%. For the same compound, the necrosis (Molt-4 cells [9]; 1 μM PDA-66, 48 h) was “tendential increase”, the “apoptosis” value (Molt-4 cells [9]; 1 μM PDA-66, 48 h, mean±SD) was 16.3±5.1% and the “apoptosis” value (Molt-4 cells [9]; 1 μM PDA-66, 72 h, mean±SD) was 20.1±6.6%. The “necrosis rate” value (Molt-4 cells [9]; 1 μM PDA-66, 72 h, mean±SD) was 46.7±15.6%, the necrosis (RS4;11 cells [10]; 1 μM PDA-66, 48 h) was “tendential increase” and the “apoptosis” value (RS4;11 cells [10]; 1 μM PDA-66, 48 h, mean±SD) was 7.4±1.1%. The “apoptosis” value (RS4;11 cells [10]; 1 μM PDA-66, 72 h, mean±SD) was 6.4±3.6% and the “necrosis rate” value (RS4;11 cells [10]; 1 μM PDA-66, 72 h, mean±SD) was 26.5±10.2%.
